Data reported in ChEMBL document CHEMBL4610000, “Discovery of structurally distinct tricyclic M4 positive allosteric modulator (PAM) chemotypes” (Bioorg Med Chem Lett, 2020).

Tests used:
[1] = molecular target: T1, Muscarinic acetylcholine receptor M4 (Homo sapiens, UniProt P08173); assay: Positive allosteric modulation of human muscarinic M4 receptor expressed in CHO cells co-expressing Gqi5 assessed as increase in acetylcholine-induced calcium mobilization; type: functional, cell-based
T1 sequence (P08173 whole entry): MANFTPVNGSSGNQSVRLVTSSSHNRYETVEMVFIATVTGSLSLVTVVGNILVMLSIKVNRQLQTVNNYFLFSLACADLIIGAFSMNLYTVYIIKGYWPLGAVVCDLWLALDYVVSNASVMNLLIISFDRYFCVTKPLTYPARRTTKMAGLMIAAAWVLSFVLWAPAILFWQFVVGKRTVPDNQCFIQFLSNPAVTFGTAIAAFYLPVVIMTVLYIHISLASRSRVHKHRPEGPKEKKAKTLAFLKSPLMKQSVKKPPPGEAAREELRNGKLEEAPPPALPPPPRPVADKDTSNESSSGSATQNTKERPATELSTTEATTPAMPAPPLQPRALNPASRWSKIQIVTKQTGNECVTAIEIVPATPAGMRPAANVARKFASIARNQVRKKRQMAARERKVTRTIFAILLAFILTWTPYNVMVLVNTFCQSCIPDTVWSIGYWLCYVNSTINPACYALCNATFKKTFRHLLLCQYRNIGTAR

[2] = molecular target: T2, Muscarinic acetylcholine receptor M4 (Homo sapiens) (UniProt P08173); assay: Positive allosteric modulation of human muscarinic M4 receptor expressed in CHO cells co-expressing Gqi5 assessed as increase in acetylcholine-induced calcium mobilization relative to acetylcholine; type: functional, cell-based
T2 sequence (whole entry): T1 sequence (P08173 whole entry)

[3] = molecular target: T3, Muscarinic acetylcholine receptor M4 (Rattus norvegicus, UniProt P08485); assay: Positive allosteric modulation of rat muscarinic M4 receptor
T3 sequence (P08485 whole entry): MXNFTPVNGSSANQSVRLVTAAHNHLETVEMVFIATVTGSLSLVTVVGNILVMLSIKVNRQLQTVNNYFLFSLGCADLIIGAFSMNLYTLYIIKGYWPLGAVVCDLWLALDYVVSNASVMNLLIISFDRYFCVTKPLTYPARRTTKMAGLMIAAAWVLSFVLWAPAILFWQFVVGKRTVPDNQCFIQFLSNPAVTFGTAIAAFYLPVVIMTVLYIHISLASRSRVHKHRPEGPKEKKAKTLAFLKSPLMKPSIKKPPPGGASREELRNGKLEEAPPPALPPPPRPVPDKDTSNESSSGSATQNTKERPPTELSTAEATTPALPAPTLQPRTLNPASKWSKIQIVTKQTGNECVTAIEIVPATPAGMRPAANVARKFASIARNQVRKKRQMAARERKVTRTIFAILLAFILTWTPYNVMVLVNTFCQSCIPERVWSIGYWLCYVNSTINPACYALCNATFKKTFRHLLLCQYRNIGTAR

[4] = Intrinsic clearance in rat microsomes; type: ADME, Microsome
[5] = Intrinsic clearance in human microsomes; type: ADME, Microsome
[6] = Unbound fraction in rat plasma; type: ADME, cell-free
[7] = Unbound fraction in human plasma; type: ADME, cell-free
[8] = Unbound fraction in rat brain; type: ADME, tissue-based
[9] = Brain to plasma permeability coefficient, Kp of the compound in Sprague-Dawley rat at 0.2 mg/kg, iv measured after 0.25 hrs; type: ADME, organism-based; conditions: brain and plasma
[10] = Unbound brain-to-plasma concentration ratio in Sprague-Dawley rat at 0.2 mg/kg, iv measured after 0.25 hrs; type: ADME, organism-based; conditions: brain and plasma, read-out: K(p,uu,brain)

SMILES	EC50 [1] [nM]	%max [2] [%]	EC50 [3] [nM]	other results
Cc1c2c(ccc3c(NC4CCCC4)ncnc32)nn1C	848	76	–	–
COc1cc(N2CC(Nc3ncnc4c3ccc3nnn(C)c34)C2)c(Cl)cn1	1490	93	–	–
Cn1nnc2ccc(C(=O)NC3CN(c4cc(Cl)ncc4Cl)C3)c(N)c21	91	63	157	CLint scaled [4]: 120 mL/min/kg; CLint scaled [5]: 27 mL/min/kg; fraction unbound [6]: 0.032; fraction unbound [7]: 0.084; fraction unbound [8]: 0.033; Kp at 0.25 h [9]: 0.17; Kp uu at 0.25 h [10]: 0.18
Cc1c2c(ccc3c(NC4CN(c5cc(Cl)ncc5Cl)C4)ncnc32)nn1C	275	101	254	CLint scaled [4]: 170 mL/min/kg; CLint scaled [5]: 120 mL/min/kg; fraction unbound [6]: 0.004; fraction unbound [7]: 0.008; fraction unbound [8]: 0.002; Kp at 0.25 h [9]: 0.21; Kp uu at 0.25 h [10]: 0.11
Cc1c2c(N)c(C(=O)NC3CN(c4ccc(F)c(F)c4)C3)ccc2nn1C	619	85	–	–
Cc1c2c(ccc3c(NCc4ccc(C(=O)NC5CCCC5)cc4)ncnc32)nn1C	239	100	168	–
Cc1c2c(N)c(C(=O)NC3CN(c4ncc(C#N)cc4Cl)C3)ccc2nn1C	158	93	129	–
Cc1c2c(N)c(C(=O)NC3CN(c4cccc(Cl)n4)C3)ccc2nn1C	1450	78	–	–
Cc1c2c(N)c(C(=O)NC3CN(c4ncc(Cl)cc4F)C3)ccc2nn1C	244	96	72	–
Cc1c2cc(C(=O)NC3CN(c4cc(Cl)ncc4Cl)C3)ccc2nn1C	–	–	259	CLint scaled [4]: 28 mL/min/kg; CLint scaled [5]: 33 mL/min/kg; Kp at 0.25 h [9]: 0.05; Kp uu at 0.25 h [10]: 0.04
Cn1nnc2ccc3c(NC4CCCC4)ncnc3c21	820	69	–	–
Cc1c2c(ccc3c(N4CC5(COC5)C4)ncnc32)nn1C	528	90	–	–
Cn1nnc2ccc(C(=O)NC3CN(c4ccc(F)c(F)c4)C3)c(N)c21	2430	94	–	–
Cn1nnc2ccc(C(=O)NC3CN(c4ncc(Cl)cc4F)C3)c(N)c21	364	65	167	–
Cc1c2c(ccc3c(N4CCCC4)ncnc32)nn1C	624	74	–	–
Cn1nnc2ccc3c(NC4CN(c5cc(Cl)ncc5Cl)C4)ncnc3c21	63	81	148	CLint scaled [4]: 110 mL/min/kg; CLint scaled [5]: 21 mL/min/kg; fraction unbound [6]: 0.007; fraction unbound [7]: 0.021; fraction unbound [8]: 0.003; Kp at 0.25 h [9]: 0.25; Kp uu at 0.25 h [10]: 0.11
COc1cc(N2CC(NC(=O)c3ccc4nn(C)c(C)c4c3N)C2)c(Cl)cn1	148	80	82	CLint scaled [4]: 30 mL/min/kg; CLint scaled [5]: 9 mL/min/kg; fraction unbound [6]: 0.008; fraction unbound [7]: 0.045; fraction unbound [8]: 0.011; Kp at 0.25 h [9]: 0.18; Kp uu at 0.25 h [10]: 0.25
Cc1c2c(N)c(C(=O)NC3CN(c4ccc(C(F)(F)F)nc4)C3)ccc2nn1C	137	80	112	–
Cc1c2c(N)c(C(=O)NC3CN(c4cc(Cl)ncc4Cl)C3)ccc2nn1C	125	86	42	CLint scaled [4]: 180 mL/min/kg; CLint scaled [5]: 50 mL/min/kg; fraction unbound [6]: 0.01; fraction unbound [7]: 0.034; fraction unbound [8]: 0.025; Kp at 0.25 h [9]: 0.12; Kp uu at 0.25 h [10]: 0.3

SMILES	EC50 [1] [nM]	%max [2] [%]	EC50 [3] [nM]	other results
COc1cc(N2CC(Nc3ncnc4c3ccc3nn(C)c(C)c34)C2)c(Cl)cn1	379	86	226	CLint scaled [4]: 120 mL/min/kg; CLint scaled [5]: 55 mL/min/kg; fraction unbound [6]: 0.002; fraction unbound [7]: 0.007; fraction unbound [8]: 0.005; Kp at 0.25 h [9]: 1.55; Kp uu at 0.25 h [10]: 3.88
Cc1c2c(N)c(C(=O)NC3CN(c4ncc(F)cn4)C3)ccc2nn1C	6210	90	–	–
Cn1nnc2ccc3c(NCc4ccc(C(C)(C)O)cc4)ncnc3c21	1720	97	–	–
Cn1nnc2ccc(C(=O)NC3CN(c4ccc(C#N)cn4)C3)c(N)c21	1720	60	–	–
Cn1nnc2ccc(C(=O)NC3CN(c4ncc(F)cc4Cl)C3)c(N)c21	3600	80	–	–
COc1ccc(CNc2ncnc3c2ccc2nn(C)c(C)c23)cc1F	470	95	181	–
Cc1c2c(ccc3c(NCc4ccc(C(=O)NCC(C)(C)C)cc4)ncnc32)nn1C	957	90	–	–
Cn1nnc2ccc(C(=O)NC3CN(c4cccc(Cl)n4)C3)c(N)c21	4500	84	–	–
Cc1c2c(ccc3c(CC(C)(C)C)ncnc32)nn1C	467	98	–	–
COc1cc(N2CC(NC(=O)c3ccc4nnn(C)c4c3N)C2)c(Cl)cn1	373	71	232	–
Cc1c2c(N)c(C(=O)NC3CN(c4ncccc4F)C3)ccc2nn1C	3550	103	–	–
Cc1c2c(ccc3c(NCc4ccc(C(C)(C)O)cc4)ncnc32)nn1C	552	86	–	%max ([2]; tested as the 2H-labelled form): 86%
Cn1nnc2ccc(C(=O)NC3CN(c4cc(Cl)ncc4Cl)C3)cc21	–	–	721	CLint scaled [4]: 10 mL/min/kg; CLint scaled [5]: 21 mL/min/kg; Kp at 0.25 h [9]: < 0.05; Kp uu at 0.25 h [10]: < 0.11
[2H]C([2H])(Nc1ncnc2c1ccc1nn(C)c(C)c12)c1ccc(C(C)(C)O)cc1	886	–	–	–
COc1ccc(CNc2ncnc3c2ccc2nnn(C)c23)cc1F	592	74	–	–
Cn1nnc2ccc(C(=O)NC3CN(c4ccnc(C(F)(F)F)c4)C3)c(N)c21	814	79	–	–
Cc1c2c(ccc3c(NCc4ccc(C(=O)NC5CCC5)cc4)ncnc32)nn1C	475	100	322	–
Cn1nnc2ccc(C(=O)NC3CN(c4ncc(C#N)cc4Cl)C3)c(N)c21	462	83	–	–
Cc1c2c(ccc3c(NCc4ccc(F)c(F)c4)ncnc32)nn1C	1480	86	–	–
